Where no end group is shown, it is not given here. The star is where a group is joined. EDANS = O=S(=O)(O)c1cccc2c(NCCN*)cccc12
Assays:
[1] = tested on: Heparan sulfate proteoglycans; details: DTx protein derived; Note 1; cited from earlier work
collagen IV = assay: Retention linker peptide binding to collagen IV-coated beads; details: peptides 20 uM, 2 hours
Method: A series of peptides comprising an MMP cleavable site with or without the addition of a tumor retention sequence were synthesized and conjugated to the fluorophore EDANS (5-((2-Aminoethyl)amino)naphthalene-1-sulfonic acid) (custom synthesis, ThermoFisher). […] These peptides were then tested for their ability to bind ECM proteins such as heparin, fibronectin and collagen which are found in abundance in the tumor stroma.
For fibronectin and collagen binding assays, streptavidin coupled magnetic beads (Mag Sepharose, Cytiva and Dynabeads, ThermoFisher, respectively) were first incubated with biotin-labelled fibronectin (Cytoskeleton) or biotin-labelled collagen IV (Prospec) for 1 Hr with gentle shaking. Following multiple washes, the ECM-coated beads were then incubated with Edans Peptides (20 uM) for 2 hours at room temperature with shaking in neutral or acidic binding buffer. Beads were then washed and resuspended in 100 uL of binding buffer in a black 96-well plate. Peptide binding was quantified by measuring the fluorescence of samples using excitation/emission spectra of EDANS (Ex 340/Em 490).

EMT6 tumor = details: mouse, in vivo, iv, 8 mg/kg
Description: We assessed the levels of IL-2 fusion proteins present in tumors in vivo by utilizing fluorescently labelled proteins and real-time whole-body imaging. Non-cleavable Construct GGG and Construct DD were conjugated to Dylight 650 probe according to the manufacturer's protocol (Dylight 650 Antibody labeling kit, ThermoFisher). […] BALB/c mice were subcutaneously inoculated with EMT6 breast cancer syngeneic model and when the average tumor volume reached 240 mm^3, animals were randomized into 3 groups based on tumor volumes (n=2 mice per treatment group).
Following a single dose of the labeled IL-2 fusion proteins to tumor-bearing mice, fluorescent images (excitation 640/emission 680 consistent with Dylight 650 probe ex/em spectra) were captured over 96 hrs on an IVIS system (PerkinElmer, IVIS Lumina Series III) and are shown in FIG. 15A. The fluorescence intensity in tumor area was quantified across the groups, average background tumor fluorescence (group 1) was subtracted from group 2 and 3 values at each time-point, and data was normalized to the initial fluorescence intensity of same amount of each labeled protein.

Molecule: 640 (DVIRDKTKTKIESLK) [Construct 640]
- binds to HSGP, affinity [1]: binds to HSGP with low affinity (DTx protein)

Molecule: peptide 15: EDANS-conjugated MMP linker peptide GGGSG...; retention motif target Collagen I (GGGSGLHERHLNNN-{EDANS}; also: EDANS fluorophore conjugated at 3' end)
- binding to collagen IV (collagen IV): binds to a lesser extent

Molecule: peptide 14: EDANS-conjugated MMP linker peptide with GPLGVRG site; retention motif target Collagen IV (KLWVLPKGPLGVRG-{EDANS}; also: EDANS fluorophore conjugated at 3' end)
- binding to collagen IV (collagen IV): strongly binds collagen IV

Molecule: 639 (NGRKIRMRCRAIDGD) [Construct 639]
- binds to HSGP, affinity [1]: binds to HSGP with high affinity (DTx protein)

B1: Construct DD: SEQ ID NO 814: m IL2-2x(GHHPH)-MMPscr-2x(G4S)-mIL2Ra(1-215)-mu IgG1 Fc (protein)
chain: APTSSSTSSSTAEAQQQQQQQQQQQQHLEQLLMDLQELLSRMENYRNLKLPRMLTFKFYLPKQATELKDLQCLEDELGPLRHVLDLTQSKSFQLEDAENFISNIRVTVVKLKGSDNTFECQFDDESATVVDFLRRWIAFCQSIISTSPQGHHPHGHHPHGVRLGPGGGGGSGGGGSELCLYDPPEVPNATFKALSYKNGTILNCECKRGFRRLKELVYMRCLGNSWSSNCQCTSNSHDKSRKQVTAQLEHQKEQQTTTDMQKPTQSMHQENLTGHCREPPPWKHEDSKRIYHFVEGQSVHYECIPGYKALQRGPAISICKMKCGKTGWTQPQLTCVDEREHHRFLASEESQGSRNSSPESETSCPITTTDFPQPTETTAMTETFVLTMEYKGCKPCICTVPEVSSVFIFPPKPKDVLTITLTPKVTCVVVDISKDDPEVQFSWFVDDVEVHTAQTQPREEQFNSTFRSVSELPIMHQDWLNGKEFKCRVNSAAFPAPIEKTISKTKGRPKAPQVYTIPPPKEQMAKDKVSLTCMITDFFPEDITVEWQWNGQPAENYKNTQPIMDTDGSYFVYSKLNVQKSNWEAGNTFTCSVLHEGLHNHHTEKSLSHSPGK
- tumor-associated fluorescence relative to Construct GGG (EMT6 tumor): roughly 2 fold

— US20240043489A1, “Cytokine Prodrugs Comprising a Cleavable Linker” (Trutino Biosciences Inc., priority 2020, published 2024)
